Results: paper PMC4525181, “Structural and dynamic insights into the energetics of activation loop rearrangement in FGFR1 kinase” (Nature Communications, 2015)
Several values for one entry are separate records, joined by “and”; a condition that tells them apart may be missing. Equal entries are not always repeated. Where two headings read alike, the source gives them in different places.

How the values were obtained:
N550K mutation in FGFR2 = conditions: N550K mutant relative to wild-type, BaF3 cells; cited from earlier work
FGFR1 Asp623Ala mutant = target: T1, FGFR1 Asp623Ala mutant (Homo sapiens, UniProt P11362, C488A/C584S/D623A); experiment: SPR binding to Asp623Ala mutant of FGFR1 kinase domain; conditions: data not shown
T1 construct: a construct spanning residues Ala458 to Glu765 of human FGFR1; made in house; host or cells: Escherichia coli
From the text: For our studies of the FGFR1 kinase domain, we have used a construct spanning residues Ala458 to Glu765 of human FGFR1 that contains two mutations (Cys488Ala and Cys584Ser) designed to stabilize the enzyme against covalent aggregation. The protein is non-phosphorylated after co-expression with PTP1B and purification from Escherichia coli. An additional mutation of the catalytic aspartate (Asp623Ala) was introduced for NMR studies to increase further the yield of stable isotope-labelled protein. […] In addition, we have confirmed using surface plasmon resonance (SPR) that binding parameters for a close analogue of the canonical FGFR1 inhibitor PD173074 (ref. [23]; henceforth referred to as PDA; Fig. 1a; Supplementary Fig. 1) are unaltered for the Asp623Ala mutant relative to the kinase-active form (data not shown).

FGFR1 kinase domain [1] = target: T2, FGFR1 kinase domain (Homo sapiens, UniProt P11362, C488A/C584S); experiment: SPR thermodynamic analysis (non-linear van't Hoff); type: binding; conditions: T0=298 K, SPR temperature dependence
T2 construct: Human FGFR1 consisting of residues Ala458-Glu765; made in house; host or cells: Escherichia coli, co-expressed with PTP1B
Procedure: (§1) Binding affinities (KD) were therefore determined from dosage experiments and binding responses at equilibrium were fit to a 1:1 steady-state affinity model available within the Scrubber 2 software (BioLogic Software Ltd., Campbell, Australia).
(§2) Transition state thermodynamic quantities were determined from the kinetic association (kon) and dissociation (koff) rate constants as previously described[64] by plotting ln (kh/kBT) versus 1/T according to the linear Eyring equation (2).

FGFR1 kinase domain [2] = target: T2, FGFR1 kinase domain; experiment: Transition state thermodynamics from linear Eyring plots (SPR rate constants vs temperature); type: binding; conditions: Eyring analysis
Procedure: as §1, §2
Here k is either the association rate constant (kon) or the dissociation rate constant (koff). ΔH and ΔS are the changes in […] enthalpy and entropy of binding, respectively, while the superscript ‘*' denotes that these refer to a transition state.

FGFR1 kinase domain [3] = target: T2, FGFR1 kinase domain; experiment: Isothermal titration calorimetry (ITC) of inhibitors binding to FGFR1; conditions: for heat capacity change ΔCp: ITC titrations at 10-35 °C, slope of ΔH vs T; for -TΔS (ITC) / N (ITC stoichiometry) / ΔG (ITC) / ΔH (ITC): 298.15 K
Procedure: ITC experiments were carried out using an ITC200 instrument (Microcal Inc., GE Healthcare)[59]. Final ligand concentrations were achieved by diluting ligand stock solutions in DMSO 1:50 (v/v) in the experimental buffer, resulting in a final DMSO concentration of 2% (v/v). Protein concentration was determined by measuring the absorbance at 280 nm. DMSO concentration in the protein solution was adjusted to 2% (v/v). ITC measurements were routinely performed at 25 °C in 20 mM Tris, pH 7.8, 20 mM NaCl, 2 mM TCEP and 2% DMSO (v/v). The titrations were performed on 10−20 μM FGFR1 in the 200 μl sample cell using 2 μl injections of 0.1−0.2 mM ligand solution every 120 s. To correct for heats of dilution and mixing, the final baseline consisting of small peaks of identical size at the end of the experiment was subtracted. Representative ITC titrations are shown in Supplementary Fig. 2. To determine the heat capacity ΔCp of ligands binding to FGFR1, ITC titrations were performed as described above at 10, 15, 20, 25, 30 and 35 °C. Binding enthalpies derived from ITC experiments were plotted as ΔH against T and ΔCp are given by the slope of the linear regression analysis according to equation (3) (Supplementary Fig. 7): […]

FGFR1 kinase domain [4] = target: T2, FGFR1 kinase domain; experiment: SPR kinetic analysis of inhibitors binding to FGFR1 kinase domain
Procedure: The hexa-histidine tag was cleaved from protein by overnight treatment with TEV protease and concomitant dialysis, immediately after the IMAC step. Purified protein in a buffer comprising 20 mM Tris-HCl, pH 8.0, 20 mM NaCl, 2 mM TCEP, was snap frozen in liquid nitrogen and stored at −80 °C. For NMR studies, an additional mutation (Asp623Ala) was introduced to improve the yield of stable isotope-labelled FGFR1 kinase protein[22]. Uniform isotopic labelling was achieved by growing E. coli BL21 (DE3) Star cells in D2O-based M9 minimal medium supplemented with ^15NH4Cl (Cambridge Isotope Laboratories or Sigma Aldrich) together with U-[^1H,^13C]- or (for fully deuterated samples) U-[^2H,^13C]-glucose (Cambridge Isotope Laboratories or Sigma Aldrich) as sole nitrogen and carbon sources, respectively. Purification was by IMAC and ion exchange chromatography; the 6 × His tag was not cleaved from the protein used for NMR. Human Abl consisting of residues Ser248-Val534 with an engineered TEV-cleavable N-terminal 6 × His tag and mutation Asn355Ser was expressed and purified as described[50] with minor modifications. For biophysical studies, the 6 × His tag was retained intact for both kinases as it was used for immobilization on a nitrilotriacetic acid (NTA) sensor chip.
Non-phosphorylated, histidine-tagged FGFR1 and non-phosphorylated, histidine-tagged Abl were immobilized as the ligand onto NTA sensor chips using a capture coupling method. The NTA surface was first activated with 500 μM NiSO4 in immobilization buffer. The carboxymethyl dextran surface was then activated with a 1:1 ratio of 0.4 M EDC and 0.1 M NHS. Hexa-histidine-tagged protein was diluted into immobilization buffer to a concentration of 30 μg ml^−1, and immobilized onto the surface with a 7-min injection. Remaining activated groups were blocked with 0.1 M Tris, pH 8.0. […] PBS, pH 7.4, 50 μM EDTA and 0.05% Surfactant P20 (v/v) (for Abl supplemented with 10% glycerol (v/v)) were used as immobilization buffer. […] SPR experiments were performed using the Biacore 3000, Biacore S51 and Biacore T200 biosensors (GE Healthcare), with NTA and series S NTA sensor chips (GE Healthcare). All FGFR1 binding experiments were done using PBS (pH range 7.0–7.4), 50 μM EDTA, 0.05% Surfactant P20 (v/v) and 1% DMSO (v/v) or 50 mM Bis-Tris (pH range 5.5–6.5), 100 mM NaCl, 50 μM EDTA, 0.05% Surfactant P20 (v/v) and 1% DMSO (v/v), as running buffer. All Abl binding experiments were conducted using PBS, pH 7.4, 50 μM EDTA, 0.05% Surfactant P20 (v/v), 10% glycerol (v/v) and 1% DMSO (v/v) as running buffer. […] Finally, they were diluted 1:100 (v/v) in running buffer without DMSO to achieve the target concentration resulting in a final DMSO concentration of 1% (v/v).
The highest compound concentration varied, but for all analytes five sequential injections with constant injection time and a constant dilution factor were done. All analyte concentrations were injected in one cycle, one after the other for 120 s with a short dissociation phase in between injections (∼60 s) and with a longer dissociation phase at the end of the cycle (1,000 to 20,000 s that varied depending on the expected dissociation rate constant of the analyte). Zero-buffer blank injections were included for referencing. Biacore T200 evaluation software and BIAevaluation 4.1 software, respectively, were used for processing and analysing data. Rate constants were calculated globally from the obtained sensorgram data by fitting to a 1:1 interaction model. Representative sensorgrams are shown in Supplementary Fig. 6. Multi-cycle kinetic analysis was carried out as previously described. Binding affinities (KD) were calculated from the equation KD=koff/kon.

Asp641 = Asp641 (UniProt position 641, VMKIADFGLAR); experiment: kinetics (surface plasmon resonance); conditions: 298 K; PBS (pH 7.0-7.4) or 100 mM NaCl with 50 mM Bis-Tris (pH 5.5-6.5); PBS (pH 7.0-7.4) or 50 mM Bis-Tris (pH 5.5-6.5) with 100 mM NaCl. Both contain 50 µM EDTA, 0.05% Surfactant P20 and 1% DMSO.; Non-phosphorylated, initially ligand-free FGFR1 kinase domain immobilised on an NTA chip. The rate reports on the DFG-in to DFG-out transition required for ponatinib binding.

T2 sequence (P11362 458-765 C488A/C584S): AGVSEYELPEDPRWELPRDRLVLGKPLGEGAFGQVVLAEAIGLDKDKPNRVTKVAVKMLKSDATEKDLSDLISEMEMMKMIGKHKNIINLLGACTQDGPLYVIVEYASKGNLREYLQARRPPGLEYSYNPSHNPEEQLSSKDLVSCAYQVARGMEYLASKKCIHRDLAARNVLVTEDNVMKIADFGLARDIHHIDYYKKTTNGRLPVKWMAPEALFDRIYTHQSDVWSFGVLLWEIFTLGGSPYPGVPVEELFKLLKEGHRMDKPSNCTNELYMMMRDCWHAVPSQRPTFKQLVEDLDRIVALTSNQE
T1 sequence (P11362 458-765 C488A/C584S/D623A): as the sequence (P11362 458-765 C488A/C584S) above, with D166A counted along it

| Compound | effect of FGFR2 N550K mutation on inhibitor potency (N550K mutation in FGFR2) | ΔG0 van't Hoff (FGFR1 kinase domain [1]) [kcal/mol] | ΔH0 van't Hoff (FGFR1 kinase domain [1]) | −TΔS0 van't Hoff (FGFR1 kinase domain [1]) [kcal/mol] | heat capacity change ΔCp (FGFR1 kinase domain [3]) [cal mol^−1 K^−1] | -TΔS (ITC) (FGFR1 kinase domain [3]; ITC) [kcal/mol] | N (ITC stoichiometry) (FGFR1 kinase domain [3]; ITC) | ΔG (ITC) (FGFR1 kinase domain [3]; ITC) [kcal/mol] | ΔH (ITC) (FGFR1 kinase domain [3]; ITC) | other results |
| --- | --- | --- | --- | --- | --- | --- | --- | --- | --- | --- |
| CCN(CC)CCCCNc1ncc2cc(-c3cc(OC)cc(OC)c3)c(NC(=O)NC(C)(C)C)nc2n1 [PD173074] | confers resistance | – | – | – | – | – | – | – | – | – |
| CCN(CC)CCCNc1ncc2cc(-c3cc(OC)cc(OC)c3)c(NC(=O)NC(C)(C)C)nc2n1 [PDA] | – | -11.1 ± 0.02 | -11.5 kcal/mol and -11.5 ± 0.8 kcal/mol | 0.4 ± 0.8 | -359 | 1.1 ± 0.0 | 0.8±0.02 | -11.0 ± 0.0 | -12.1 kcal/mol and -12.1 ± 1.8 kcal/mol | binding parameters for Asp623Ala mutant relative to the kinase-active form (FGFR1 Asp623Ala mutant): unaltered; ΔG# ass (transition state free-energy barrier, association) (FGFR1 kinase domain [2]; association phase): 8.7 ± 1.8 kcal/mol and 8.7 kcal/mol; ΔH# ass (transition state enthalpy, association) (FGFR1 kinase domain [2]; association phase): 16.6 ± 1.3 kcal/mol and 16.6 kcal/mol; −TΔS# ass (transition state entropy, association) (FGFR1 kinase domain [2]; association phase): -7.9 ± 1.3 kcal/mol and -7.9 kcal/mol; -TΔS# diss (FGFR1 kinase domain [2]; dissociation phase): -5.3 ± 1.8 kcal/mol; ΔG# diss (FGFR1 kinase domain [2]; dissociation phase): 19.5 ± 2.6 kcal/mol; ΔH# diss (FGFR1 kinase domain [2]; dissociation phase): 24.8 ± 1.8 kcal/mol; Kd (FGFR1 kinase domain [3]; ITC, 298 K): 8.8 nM; KD, fold weaker in the presence of 1.2 M GdmCl (FGFR1 kinase domain [4]; 1.2 M GdmCl vs absence of GdmCl): ~2 fold; association rate constant as a function of pH (FGFR1 kinase domain [4]; SPR 298 K, pH decreased from 7.4 to 5.5): no dependence on pH; kon (FGFR1 kinase domain [4]; SPR, 1.2 M GdmCl in PBS running buffer, read-out: association rate constant kon in the presence of 1.2 M GdmCl): 680000 M⁻¹ s⁻¹; koff (FGFR1 kinase domain [4]; SPR, 1.2 M GdmCl in PBS running buffer, read-out: dissociation rate constant koff in the presence of 1.2 M GdmCl): 0.0018 s⁻¹; Kd (FGFR1 kinase domain [4]; SPR, 298 K, pH 7.4, read-out: KD (koff/kon)): 5.7 nM; kon (FGFR1 kinase domain [4]; SPR, 298 K, pH 7.4, read-out: association rate constant kon): 1.6e+06 M⁻¹ s⁻¹; koff (FGFR1 kinase domain [4]; SPR, 298 K, pH 7.4, read-out: dissociation rate constant koff): 0.0092 s⁻¹ |
| Cc1ccc(C(=O)Nc2ccc(CN3CCN(C)CC3)c(C(F)(F)F)c2)cc1C#Cc1cnc2cccnn12 [ponatinib] | enhanced inhibitory potency against this mutant relative to wild-type | – | – | – | – | – | – | – | – | – |
| Fibroblast growth factor receptor 1 (FGFR1) kinase domain (Homo sapiens; C488A;C584S) | – | – | – | – | – | – | – | – | – | pKa (Asp641): 6.25 |
| SU5402 | – | -9.5 ± 0.02 | -14.2 kcal/mol and -14.2 ± 0.8 kcal/mol | 4.8 ± 0.8 | -172 | 2.7 ± 0.2 | 1.0±0.04 | -9.7 ± 0.1 | -12.4 kcal/mol and -12.4 ± 0.2 kcal/mol | – |
